Several values for one entry are separate records, joined by “and”; a condition that tells them apart may be missing. Identical values can stand only once.

One data set deals with guinea pigs. Briefly: Local anaesthetic effect in guinea pigs after intracutaneous infiltration. The settings on record: for Duration of Anaesthesia: 1.0% + adrenaline 5 μg/ml, 12 animals. The format is in vivo.
Data set [1] is described as follows: in vivo. Conditions: rat, iv.
In a further data set the test system is rabbits. Conditions: rabbit, in vivo.
Data set [2] can be described thus: in vivo. The settings on record: mouse.
Data set [3] relates to arrhythmic heart-beats induced by ouabain. Briefly: Effect against arrhythmic heart-beats induced by ouabain in anaesthetized dogs. It counts as in vivo. Conditions: for Duration of regularization / Number of regularized arrhythmias (percent) / Number of regularized arrhythmias: ouabain; for Number of regularized arrhythmias: count.
In another data set the test system is sciatic nerve. Briefly: Local anaesthetic effect in rats after perineuronal injection close to the sciatic nerve. It counts as in vivo. Conditions: for Duration of anaesthesia, Motoric Blockage / Duration of anaesthesia, Sensory Blockage: 1.0% + adr. 5 μg/ml, 10 animals, perineuronal, sciatic nerve.

In the case of `Cc1cccc(C)c1NC(=O)C1CCCCN1CCO` (racemic) [Substance S-1249, DL-N-(2-hydroxyethyl)pipecolinyl-2,6-dimethylanilide], in the data set with guinea pigs, the “local anaesthetic effect, in words” value is “local anaesthetic effect of the same order of magnitude as lidocaine and mepivacaine”; the “Duration of Anaesthesia” value turned out to be 140 ± 8 min. This compound returned a TD50 in “in vivo [1]” of 103 ± 8 mg/kg. In addition, the “tissue irritation, in words” value with rabbits was “considerably less tissue irritation”. Moreover, in the data set “in vivo [2]”, the LD50 stood at 57 mg/kg. Moreover, the “effect against arrhythmic heart-beats induced by ouabain, in words” value (“effect … by ouabain, in words” below) in data set [3] is “effects equivalent to lidocaine and better than mepivacaine”. For the same compound, in data set [3] (dose 1.0 mg/kg), the Duration of regularization is 130 ± 40 min, the “Number of regularized arrhythmias (percent)” value (“Number … (percent)” for short) is 65% and the “Number of regularized arrhythmias” value is 13. For the same compound, in data set [3] (dose 2.0 mg/kg), the Duration of regularization came out at 280 ± 70 min, the “Number … (percent)” value is 70% and the “Number of regularized arrhythmias” value is on record as 17. In the data set on sciatic nerve, the “Duration of anaesthesia, Motoric Blockage” value (shortened to “Duration … Motoric Blockage”) is 83 ± 6 min and the “Duration of anaesthesia, Sensory Blockage” value (“Duration … Sensory Blockage” for short) turned out to be 82 ± 6 min. The “local anaesthetic effect, in words” value in the data set with sciatic nerve (perineuronal injection close to the sciatic nerve) is “equivalent local anaesthetic effect to lidocaine and mepivacaine”.

`CCN(CC)CC(=O)Nc1c(C)cccc1C` [Lidocaine, lidocaine, reference compound]: the “Duration of Anaesthesia” value in the data set with guinea pigs amounted to 132 ± 7 min. Moreover, in data set [3] (dose 1.0 mg/kg), the “Number … (percent)” value stood at 60% and the “Number of regularized arrhythmias” value stood at 12. In data set [3] (dose 2.0 mg/kg), the Duration of regularization turned out to be 220 ± 30 min, the “Number … (percent)” value turned out to be 79% and the “Number of regularized arrhythmias” value is 19. Besides, in the data set on sciatic nerve, the “Duration … Motoric Blockage” value stood at 79 ± 5 min and the “Duration … Sensory Blockage” value amounted to 77 ± 5 min.

In the case of `Cc1cccc(C)c1NC(=O)C1CCCCN1C` (centres unmarked) [Mepivacaine, mepivacaine, reference compound], the “Duration of Anaesthesia” value in the data set on guinea pigs was determined as 152 ± 16 min. In “in vivo [1]”, the TD50 was 38 ± 3 mg/kg. In addition, the LD50 in the data set “in vivo [2]” stood at 31 mg/kg. Also, the LD50 in “in vivo [2]” (iv) is 31 mg/kg. Moreover, in data set [3] (dose 1.0 mg/kg), the Duration of regularization amounted to 110 ± 20 min, the “Number … (percent)” value is on record as 50% and the “Number of regularized arrhythmias” value is 5. Besides, in data set [3] (dose 2.0 mg/kg), the Duration of regularization is given as 185 ± 50 min; the “Number … (percent)” value was 50% and 60%; the “Number of regularized arrhythmias” value was determined as 6. Also, in the data set on sciatic nerve, the “Duration … Motoric Blockage” value is on record as 89 ± 4 min and the “Duration … Sensory Blockage” value is 87 ± 4 min.

As for `Cc1cccc(C)c1NC(=O)C1CCCC[N+]1(C)CCO` (centres unmarked) [N-methyl-S-1249, N(quaternary-2-hydroxyethyl-N-methyl)pipecolinyl-2,6-dimethylanilide], in the data set with guinea pigs, the “local anaesthetic effect, in words” value is given as “local anaesthetic effect” and the “Duration of Anaesthesia” value amounted to 128 ± 12 min. In the data set “in vivo [1]”, the TD50 was 125 mg/kg. Also, in “in vivo [2]” (iv), the LD50 is 84 mg/kg. Besides, in data set [3], the “effect … by ouabain, in words” value is “rhythm-regularizing effects”. Besides, in data set [3] (dose 1.0 mg/kg), the Duration of regularization was determined as 180 ± 30 min, the “Number … (percent)” value worked out at 100% and the “Number of regularized arrhythmias” value amounted to 4. For the same compound, in data set [3] (dose 2.0 mg/kg), the Duration of regularization was 310 ± 50 min, the “Number … (percent)” value stood at 100% and the “Number of regularized arrhythmias” value is 4.

As to `Cc1cccc(C)c1NC(=O)[C@@H]1CCCN1CCO` [Substance S-1258, L-N-(2-hydroxyethyl)prolyl-2,6-dimethylanilide], in the data set on guinea pigs, the “local anaesthetic effect, in words” value is reported as “better local anaesthetic effect than lidocaine” and the “Duration of Anaesthesia” value came to 111 ± 8 min. In “in vivo [1]”, this compound yielded a TD50 of 130 ± 10 mg/kg. Further, in “in vivo [2]” (iv), the LD50 is 110 mg/kg. Besides, the “effect … by ouabain, in words” value in data set [3] is “effective against arrhythmic heartbeats induced by ouabain”. Moreover, in data set [3] (dose 1.0 mg/kg), the Duration of regularization is on record as 95 ± 20 min, the “Number … (percent)” value came out at 83% and the “Number of regularized arrhythmias” value is reported as 5. Besides, in data set [3] (dose 2.0 mg/kg), the Duration of regularization came out at 195 ± 40 min, the “Number … (percent)” value is given as 67% and the “Number of regularized arrhythmias” value amounted to 4.

As for `Cc1cccc(C)c1NC(=O)C1CCCCN1CCCO` (centres unmarked) [Substance S-1265, N-(3-Hydroxypropyl)pipecolinyl-2,6-dimethylanilide], in the data set with guinea pigs, the “local anaesthetic effect, in words” value is “better local anaesthetic effect than lidocaine” and the “Duration of Anaesthesia” value was 151 ± 6 min. This compound also had a TD50 in “in vivo [1]” of 80 ± 4 mg/kg. The compound also returned an LD50 in the data set “in vivo [2]” (iv) of 40 mg/kg. In data set [3], the “effect … by ouabain, in words” value is “effects equivalent to lidocaine and mepivacaine”. Also, in data set [3] (dose 1.0 mg/kg), the Duration of regularization is 120 ± 30 min, the “Number … (percent)” value is on record as 67% and the “Number of regularized arrhythmias” value is 4. Besides, in data set [3] (dose 2.0 mg/kg), the Duration of regularization was 200 ± 40 min, the “Number … (percent)” value was 83% and the “Number of regularized arrhythmias” value amounted to 5.

The values are drawn from patent publication US4302465A, “Therapeutically active, substituted piperidines and pyrrolidines therapeutic compositions thereof and methods of use thereof” (priority 1979, dated 1981).
